Measured values reported in patent US6413947B1, “Anilide derivative, production and use thereof” (Takeda Chemical Industries, Ltd., priority 1997, dated 2002).

| SMILES | melting point [°C] |
| --- | --- |
| CCOCCCN(C)Cc1ccc(NC(=O)C2=Cc3cc(-c4ccc(OCC)cc4)ccc3N(C)CC2)cc1 [Compound 319, N-(4-((N-(3-ethoxypropyl)-N-methylamino)methyl)phenyl)-7-(4-ethoxyphenyl)-1-methyl-2,3-dihydro-1-benzazepine-4-carboxamide] | 129 to 131 |
| Cc1ccc(-c2ccc3c(c2)C=C(C(=O)Nc2ccc(CN(C)C4CCOCC4)cc2)CCN3S(=O)(=O)C(F)(F)F)cc1 [Compound 321, 7-(4-methylphenyl)-N-[4-[[N-methyl-N-(tetrahydro-2H-pyran-4-yl)amino]methyl]-phenyl]-1-[(trifluoromethyl)sulfonyl]-2,3-dihydro-1-benzazepine-4-carboxamide] | 185 to 187 |
| Cc1ccc(-c2ccc3c(c2)C=C(C(=O)Nc2ccc(CNc4ccccn4)cc2)CCO3)cc1 [Compound 322, N-[4-[(pyrid-2-yl)aminomethyl]phenyl]-7-(4-methylphenyl)-2,3-dihydro-1-benzoxepine-4-carboxamide] | 189 to 190 |
| Cc1ccc(-c2ccc3c(c2)C=C(C(=O)Nc2ccc(CP4(=O)OCCCO4)cc2)CCO3)cc1 [Ref Ex 51, 2—(4—(7—(4-methylphenyl)-2,3-dihydro-1-benzoxepin-4-carbonylamino)benzyl)-1,3,2-dioxaphosphorinane-2-oxide] | 268 to 269 |

The remaining lines, values ahead:

| melting point [°C] | SMILES |
| --- | --- |
| 182 to 183 | CN1CCC(C(=O)Nc2ccc(CN(C)C3CCOCC3)cc2)=Cc2cc(-c3ccc(OC(F)(F)F)cc3)ccc21 [Compound 315, 1-methyl-N-[4-[[N-methyl-N-(tetrahydro-2H-pyran-4-yl)amino]methyl]phenyl]-7-(4-trifluoromethoxyphenyl)-2,3-dihydro-1-benzazepine-4-carboxamide] |
| 202 to 204 | CN1CCC(C(=O)Nc2ccc(CN(C)C3CCOCC3)cc2)=Cc2cc(-c3ccc(N4CCCCC4)cc3)ccc21 [Compound 316, 1-methyl-N-[4-[[N-methyl-N-(tetrahydro-2H-pyran-4-yl)amino]methyl]-phenyl]-7-[4-(1-piperidinyl)phenyl]-2,3-dihydro-1-benzazepine-4-carboxamide] |
| 229 to 230.5 | Cc1ccc(-c2ccc3c(c2)C=C(C(=O)Nc2ccc(CN(C)C4CCOCC4)cc2)CCN3C=O)cc1 [Compound 317, 1-formyl-7-(4-methylphenyl)-N-[4-[[N-methyl-N-(tetrahydro-2H-pyran-4-yl)amino]methyl]phenyl]-2,3-dihydro-1-benzazepine-4-carboxamide] |
| 139 to 141 | CCSc1ccc(-c2ccc3c(c2)C=C(C(=O)Nc2ccc(CN(C)C4CCOCC4)cc2)CCN3C)cc1 [Compound 320, 7-(4-ethylthiophenyl)-1-methyl-N-[4-[[N-methyl-N-(tetrahydro-2H-pyran-4-yl)amino]methyl]phenyl]-2,3-dihydro-1-benzazepine-4-carboxamide] |
